Source: US20220089541A1, “Compounds for the Treatment of Kinase-Dependent Disorders” (Exelixis, Inc., priority 2019, published 2022)

Assays:
[1] = Microsomal assay, human liver microsome stability; conditions: liver microsomes, pH 7.4
Method: Liver microsomes tissue fractions were used for in vitro assessment of metabolic stability of compounds by cytochrome P450 (CYP450) (for example, CYP3A4, CYP2C9) mediated phase I oxidation, and metabolism through other pathways. Human, mouse, rat, and dog liver microsomes tissue fractions were obtained from Corning Gentest and BioreclamationIVT.
The assay was carried out in 96-well microtiter plates. Compounds were incubated (N=l) at 37° C. in the presence of liver microsomes. Reaction mixtures (25 μL) contained a final concentration of 1 μM test compound, 0.5 mg/mL liver microsomes (LM) protein, and 1 mM NADPH in 100 mM potassium phosphate, pH 7.4 buffer with 3.3 mM MgCl2. The extent of metabolism was calculated as the disappearance of the test compound, compared to the 0-min control reaction incubations. Verapamil was included as a positive control to verily assay performance.
At each of the four time points, 150 μL of quench solution (100% acetonitrile with 0.1% formic acid) with internal standard (bucetin for positive ESI mode) was transferred to each well. Plates were sealed and centrifuged at 10° C. for 15 minutes at 4000 rpm. The supernatant was transferred to fresh plates for LC/MS/MS analysis.
All samples were analyzed on LC/MS/MS using an AB Sciex API 4000 instrument, coupled to a Shimadzu LC-20AD LC Pump system. Analytical samples were separated using a Waters Atlantis T3 dC18 reverse phase HPLC column (20 mm×2.1 mm) at a flow rate of 0.5 mL/min. The mobile phase consisted of 0.1% formic acid in water (solvent A) and 0.1% formic acid in 100% acetonitrile (solvent B).

AXL = molecular target: T1, AXL (Homo sapiens, UniProt P30530); assay: AXL autophosphorylation ELISA in A-172 cells; assay type: cell-based; conditions: A-172 glioblastoma cells, Gas6-stimulated, phospho-AXL ELISA, 1 h compound incubation
T1 construct: host or cells: A-172 glioblastoma cells
T1 sequence (P30530 26-894): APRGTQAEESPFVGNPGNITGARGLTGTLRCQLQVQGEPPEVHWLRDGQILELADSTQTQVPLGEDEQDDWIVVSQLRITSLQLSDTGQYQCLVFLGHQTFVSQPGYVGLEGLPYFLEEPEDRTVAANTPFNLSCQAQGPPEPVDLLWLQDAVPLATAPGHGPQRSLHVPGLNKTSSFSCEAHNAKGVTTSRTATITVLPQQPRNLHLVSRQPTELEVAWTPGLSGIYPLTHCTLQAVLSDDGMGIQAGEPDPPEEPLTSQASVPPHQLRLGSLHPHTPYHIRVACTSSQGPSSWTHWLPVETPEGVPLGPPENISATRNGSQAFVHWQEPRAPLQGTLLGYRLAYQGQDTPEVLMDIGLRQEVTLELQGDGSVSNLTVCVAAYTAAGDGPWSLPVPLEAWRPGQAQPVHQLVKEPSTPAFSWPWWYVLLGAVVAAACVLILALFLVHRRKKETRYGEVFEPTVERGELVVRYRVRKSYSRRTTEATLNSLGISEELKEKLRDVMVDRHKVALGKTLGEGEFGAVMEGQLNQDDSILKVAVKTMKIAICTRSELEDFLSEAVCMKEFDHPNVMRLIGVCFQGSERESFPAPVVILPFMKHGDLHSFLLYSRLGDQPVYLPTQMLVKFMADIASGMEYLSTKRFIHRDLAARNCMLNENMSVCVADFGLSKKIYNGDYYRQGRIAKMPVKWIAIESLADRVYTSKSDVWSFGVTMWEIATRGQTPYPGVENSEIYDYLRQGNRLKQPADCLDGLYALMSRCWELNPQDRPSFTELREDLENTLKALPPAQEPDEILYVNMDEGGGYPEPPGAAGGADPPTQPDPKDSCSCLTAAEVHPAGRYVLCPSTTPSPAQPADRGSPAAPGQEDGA
Method: Example A: AXL Autophosphorylation ELISA in A-172 Cells
A-172 glioblastoma cells (ATCC #CRL-1620) were seeded at 2.5×10^5 cells/well onto 24-well plates (Greiner #662165), in DMEM (Thermo Fisher #11995-040) containing 10% FBS (Thermo Fisher #26140-079), 1% MEM NEAA (Thermo Fisher #11140-050), 1% GlutaMax (Thermo Fisher #35050-061), and 1% Penicillin Streptomycin (Thermo Fisher #15140-122). A-172 cells were incubated at 37° C., 5% CO2 for 24 h and then starved for 24 h in serum-free medium. Test compounds were serially diluted to produce an 8-point dose curve in fresh serum-free medium to a final concentration of 0.3% DMSO (vehicle) and added to the cells and incubated for 1 h. Cells were then stimulated with 1 μg/mL recombinant human Gas6 (R&D Systems #885-GSB-500) for 15 min, washed with cold PBS, and immediately lysed with 150 μL of cold IX lysis buffer [20 mM Tris, 137 mM sodium chloride, 2 mM EDTA, 10% glycerol, 1% NP-40 alternative, 1 mM activated sodium orthovanadate, 1 mM PefaBloc SC (Sigma-Aldrich #11429868001), protease/phosphatase inhibitor tablet (Thermo Fisher #A32959)]. Lysates were collected and 100 μL/well added into the human phospho-AXL DuoSet IC ELISA (R&D Systems #DYC2228-2). Assay was performed according to manufacturer's instructions and sample phospho-AXL concentrations were extrapolated using human phospho-AXL control (R&D Systems #841645) as a standard. Positive control wells (100% activity) contained Gas6-stimulated, DMSO-treated cell lysates. Negative control wells (0% activity) contained Gas6-stimulated, reference inhibitor-treated cell lysates. IC50 values were calculated by nonlinear regression analysis using a 4-parameter logistic curve fit in ActivityBase XE (IDBS).

KDR = molecular target: T2, KDR (Homo sapiens, UniProt P35968); assay: KDR autophosphorylation ELISA in HUVEC cells; assay type: cell-based; conditions: VEGF165-stimulated, phospho-KDR ELISA, 1 h compound incubation
T2 construct: host or cells: HUVEC (human umbilical vein endothelial cells)
T2 sequence (P35968 20-1356): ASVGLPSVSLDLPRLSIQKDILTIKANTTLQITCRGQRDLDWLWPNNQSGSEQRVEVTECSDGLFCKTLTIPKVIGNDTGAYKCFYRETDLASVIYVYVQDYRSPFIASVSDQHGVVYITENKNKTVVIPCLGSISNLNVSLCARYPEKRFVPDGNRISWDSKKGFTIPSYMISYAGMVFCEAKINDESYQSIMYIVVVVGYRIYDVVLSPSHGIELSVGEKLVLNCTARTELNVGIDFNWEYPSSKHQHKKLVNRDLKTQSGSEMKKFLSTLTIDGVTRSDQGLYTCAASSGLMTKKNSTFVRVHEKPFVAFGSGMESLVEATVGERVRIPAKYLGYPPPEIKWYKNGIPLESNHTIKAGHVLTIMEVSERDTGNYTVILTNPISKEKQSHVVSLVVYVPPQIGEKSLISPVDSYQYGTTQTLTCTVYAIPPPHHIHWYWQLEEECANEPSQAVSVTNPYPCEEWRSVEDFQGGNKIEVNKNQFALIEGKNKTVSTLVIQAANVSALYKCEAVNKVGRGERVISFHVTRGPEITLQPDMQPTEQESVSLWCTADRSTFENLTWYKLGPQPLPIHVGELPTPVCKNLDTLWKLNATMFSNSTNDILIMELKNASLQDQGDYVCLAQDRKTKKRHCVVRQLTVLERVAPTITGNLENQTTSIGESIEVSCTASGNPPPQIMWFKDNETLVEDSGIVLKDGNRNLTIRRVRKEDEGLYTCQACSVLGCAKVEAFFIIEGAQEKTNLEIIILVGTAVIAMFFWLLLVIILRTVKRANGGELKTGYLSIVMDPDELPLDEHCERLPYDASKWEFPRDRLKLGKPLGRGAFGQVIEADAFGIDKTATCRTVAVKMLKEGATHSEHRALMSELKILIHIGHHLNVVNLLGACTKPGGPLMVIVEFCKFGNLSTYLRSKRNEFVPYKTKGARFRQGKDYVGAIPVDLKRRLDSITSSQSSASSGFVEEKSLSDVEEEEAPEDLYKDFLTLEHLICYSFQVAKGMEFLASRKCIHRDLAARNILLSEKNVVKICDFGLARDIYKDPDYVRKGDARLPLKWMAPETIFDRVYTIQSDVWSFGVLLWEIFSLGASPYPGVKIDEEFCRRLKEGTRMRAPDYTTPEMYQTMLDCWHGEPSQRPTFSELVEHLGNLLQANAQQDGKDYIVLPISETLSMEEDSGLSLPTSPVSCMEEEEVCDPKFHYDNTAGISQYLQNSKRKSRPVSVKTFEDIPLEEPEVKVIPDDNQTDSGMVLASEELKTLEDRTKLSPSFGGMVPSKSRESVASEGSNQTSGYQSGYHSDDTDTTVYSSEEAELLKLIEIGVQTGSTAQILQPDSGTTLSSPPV
Method: Example C: KDR Autophosphorylation ELISA in HUVEC Cells
umbilical vein endothelial cells or HUVEC (Lonza #C2519A) were seeded at 2×10^4 cells/well onto 96-well plates (Corning #3904), in EGM-2 growth medium (Lonza #CC-3162) containing 1% Penicillin Streptomycin (Thermo Fisher #15140-122). HUVEC cells were incubated at 37° C., 5% CO2 for 24 h and then starved for 24 h in serum-free EBM-2 basal medium (Lonza #CC-3156) containing 1% Penicillin Streptomycin. Test compounds were serially diluted to produce an 8-point dose curve in fresh serum-free medium to a final concentration of 0.3% DMSO (vehicle) and added to the cells and incubated for 1 h. Cells were then stimulated with 100 ng/mL recombinant human VEGF165 (R&D Systems #293-VE-500) for 5 min, washed with cold PBS, and immediately lysed with 130 μL of cold IX lysis buffer [20 mM Tris, 137 mM sodium chloride, 2 mM EDTA, 10% glycerol, 1% NP-40 alternative, 1 mM activated sodium orthovanadate, 1 mM PefaBloc SC (Sigma-Aldrich #11429868001), protease/phosphatase inhibitor tablet (Thermo Fisher #A32959)]. Lysates were collected and 100 μL/well added into the human phospho-KDR DuoSet IC ELISA (R&D Systems #DYC 1766-2). Assay was performed according to manufacturer's instructions and sample phospho-KDR concentrations were extrapolated using human phospho-KDR control (R&D Systems #841421) as a standard. Positive control wells (100% activity) contained VEGF165-stimulated, DMSO-treated cell lysates. Negative control wells (0% activity) contained non-stimulated cell lysates. IC50 values were calculated by nonlinear regression analysis using a 4-parameter logistic curve fit in ActivityBase XE (IDBS).

SMILES | half-life at 1 μM [1] | IC50 (AXL) | IC50 (KDR)
CNC(=O)c1cc2c(Oc3ncc(NC(=O)C4(C(=O)N(C)c5ccc(F)cc5)CC4)cc3F)ccnc2cc1OC [Compound 34, 1-N-[5-Fluoro-6-[7-methoxy-6-(methylcarbamoyl)quinolin-4-yl]oxypyridin-3-yl]-1-N′-(4-fluorophenyl)-1-N′-methylcyclopropane-1,1-dicarboxamide] | 1.3 min | > 300 nM | > 300 nM
COc1cc2nccc(Oc3ccc(NC(=O)C4(C(=O)N(C)c5ccc(F)cc5)CC4)cc3F)c2cc1OC [Compound 10, N-(4-((6,7-Dimethoxyquinolin-4-yl)oxy)-3-fluorophenyl)-N-(4-fluorophenyl)-N-methylcyclopropane-1,1-dicarboxamide] | 1.3 min | > 300 nM | > 300 nM
COc1cc2nccc(Oc3ccc(NC(=O)C4(C(=O)N(C)c5ccc(F)cc5)CC4)cc3)c2cc1OC [Compound 9, 1-N-[4-(6,7-Dimethoxyquinolin-4-yl)oxyphenyl]-1-N′-(4-fluorophenyl)-1-N′-methylcyclopropane-1,1-dicarboxamide] | 1.4 min | > 300 nM | > 300 nM

Continued, values first:

half-life at 1 μM [1] | IC50 (AXL) | IC50 (KDR) | SMILES
29.7 min | > 300 nM | – | COc1cc2nccc(Oc3ccc(N(C)C(=O)C4(C(=O)Nc5ccc(F)cc5)CC4)cc3F)c2cc1OC [Compound 51, 1-N′-[4-(6,7-Dimethoxyquinolin-4-yl)oxy-3-fluorophenyl]-1-N-(4-fluorophenyl)-1-N′-methylcyclopropane-1,1-dicarboxamide]
1.3 min | > 300 nM | > 300 nM | COc1cc2nccc(Oc3ncc(NC(=O)C4(C(=O)N(C)c5ccc(F)cc5)CC4)cc3F)c2cc1C(N)=O [Compound 35, 1-N-[6-(6-Carbamoyl-7-methoxyquinolin-4-yl)oxy-5-fluoropyridin-3-yl]-1-N′-(4-fluorophenyl)-1-N′-methylcyclopropane-1,1-dicarboxamide]
